pIC50: −log10 of the molar value.
Biological target: human FATP2 (Homo sapiens, UniProt O14975)
Assay: BODIPY-FA uptake in FATP2-overexpressing HPCT cells, fluorescence plate reader
Type: cell-based

Chain of human FATP2 (O14975 whole entry): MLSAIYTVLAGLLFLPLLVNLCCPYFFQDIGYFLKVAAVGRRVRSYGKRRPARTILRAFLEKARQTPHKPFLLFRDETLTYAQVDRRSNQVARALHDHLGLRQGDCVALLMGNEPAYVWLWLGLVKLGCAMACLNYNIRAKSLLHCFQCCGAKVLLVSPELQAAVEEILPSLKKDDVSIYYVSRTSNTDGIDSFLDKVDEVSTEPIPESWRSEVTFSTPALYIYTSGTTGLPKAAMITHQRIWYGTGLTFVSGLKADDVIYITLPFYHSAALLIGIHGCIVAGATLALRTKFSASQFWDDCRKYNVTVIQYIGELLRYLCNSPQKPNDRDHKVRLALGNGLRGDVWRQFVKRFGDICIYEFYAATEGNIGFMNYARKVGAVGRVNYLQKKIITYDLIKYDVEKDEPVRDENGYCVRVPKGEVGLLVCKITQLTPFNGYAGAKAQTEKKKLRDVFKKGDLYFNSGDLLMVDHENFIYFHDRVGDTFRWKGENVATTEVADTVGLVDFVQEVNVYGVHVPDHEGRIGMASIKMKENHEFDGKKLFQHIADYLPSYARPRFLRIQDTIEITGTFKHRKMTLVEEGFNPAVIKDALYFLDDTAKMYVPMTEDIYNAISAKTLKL

pIC50: 5.30
Structure (SMILES): O=C1Nc2ccc(Br)cc2C12NN=C(c1ccccc1)S2 (stereo not shown) [Lipofermata]

Source: article PMC12486159 (American journal of physiology. Renal physiology, 2025)
